Experimental findings from ChEMBL document CHEMBL1133498, “QSAR of 1,1'-(1,2-ethylenebisbenzyl)bis(4-substitutedpyridinium) dibromides as choline kinase inhibitors: a different approach for antiproliferative drug design” (Bioorg Med Chem Lett, 2000) are described below.

Molecules are shown by their SMILES. pIC50: −log10 of the molar value.

The test system of the assay is HT-29. In words: Compound was tested in vitro for antiproliferative activity against human HT-29 cell line. The assay is classed as functional, cell-based.
What is called pIC50 is the IC50 on a negative log10 scale, so that one unit is a factor of ten. Read a high pIC50 as a small IC50. Compound `c1cc(C[n+]2ccc(N3CCCCC3)cc2)ccc1CCc1ccc(C[n+]2ccc(N3CCCCC3)cc2)cc1` showed a pIC50 of 6.40.
As to `N#Cc1cc[n+](Cc2ccc(CCc3ccc(C[n+]4ccc(C#N)cc4)cc3)cc2)cc1`, the pIC50 is 3.70.
Compound `OCc1cc[n+](Cc2ccc(CCc3ccc(C[n+]4ccc(CO)cc4)cc3)cc2)cc1` gave a pIC50 of under 4.00.
For `c1cc(C[n+]2ccc(N3CCCC3)cc2)ccc1CCc1ccc(C[n+]2ccc(N3CCCC3)cc2)cc1`, the pIC50 was 6.00.
Take `C=CCN(CC=C)c1cc[n+](Cc2ccc(CCc3ccc(C[n+]4ccc(N(CC=C)CC=C)cc4)cc3)cc2)cc1`: the pIC50 was 6.26.
In the case of `Cc1cc[n+](Cc2ccc(CCc3ccc(C[n+]4ccc(C)cc4)cc3)cc2)cc1`, the negative logarithm of the IC50 (pIC50) is 4.70.
For the compound `Nc1cc[n+](Cc2ccc(CCc3ccc(C[n+]4ccc(N)cc4)cc3)cc2)cc1`, the pIC50 was 5.40.
The compound `c1cc(C[n+]2ccc(N3CCCCCC3)cc2)ccc1CCc1ccc(C[n+]2ccc(N3CCCCCC3)cc2)cc1` had a pIC50 of 6.40.
For `O=C(O)c1cc[n+](Cc2ccc(CCc3ccc(C[n+]4ccc(C(=O)O)cc4)cc3)cc2)cc1` the value was under 3.00; for `CN(C)c1cc[n+](Cc2ccc(CCc3ccc(C[n+]4ccc(N(C)C)cc4)cc3)cc2)cc1`, 5.70; for `C[N+]1(C)CCOC(O)(c2ccc(-c3ccc(C4(O)C[N+](C)(C)CCO4)cc3)cc2)C1` (stereo unspecified) [HEMICHOLINIUM-3], 2.60.
